The kinase profiling compilation of Christmann-Franck et al. (2016)

system: SGK1 (human), O00141 [S422D]; assay: radiometric filter-binding kinase assay, Kinase HotSpot; conditions: compound 0.5 µM; ATP 10 µM
Sequence (O00141 whole entry S422D, looked up): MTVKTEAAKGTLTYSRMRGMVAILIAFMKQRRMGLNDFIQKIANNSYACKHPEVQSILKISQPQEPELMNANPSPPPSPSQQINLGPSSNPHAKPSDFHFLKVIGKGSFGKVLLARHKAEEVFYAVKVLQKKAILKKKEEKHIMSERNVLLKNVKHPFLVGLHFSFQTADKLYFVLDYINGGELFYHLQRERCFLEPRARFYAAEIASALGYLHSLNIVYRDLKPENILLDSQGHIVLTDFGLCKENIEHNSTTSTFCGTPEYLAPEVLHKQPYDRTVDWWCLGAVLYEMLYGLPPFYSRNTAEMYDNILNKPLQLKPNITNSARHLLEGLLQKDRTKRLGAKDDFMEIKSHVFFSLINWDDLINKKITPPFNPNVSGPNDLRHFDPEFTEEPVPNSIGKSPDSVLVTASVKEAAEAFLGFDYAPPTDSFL

Row | residual activity [%] | Compound
1 | 99.4 | CCN(CC)CCCCN1c2ccccc2Oc2ccc(Cl)cc21
2 | 101 | NC(=O)c1cccc(-c2cc(Nc3ccc(OC(F)(F)F)cc3)ncn2)c1
3 | 104 | O=C1C(Cl)=C(N2C(=O)CCC2=O)C(=O)c2ccccc21
4 | 122 | C#Cc1cccc(Nc2ncnc3cc(OCCOC)c(OCCOC)cc23)c1
5 | 74.9 | O=C1NC(=O)C(c2cn(CCCn3ccnc3)c3ccccc23)=C1Nc1ccccc1
6 | 94.7 | COc1ccc(Cl)cc1NC(=O)Nc1cc(C)nc2ccccc12
7 | 84.6 | CCC(=O)Nc1ccc2ncnc(Nc3cccc(Br)c3)c2c1
8 | 81.8 | COc1ccc(-c2cnc3c(-c4ccsc4)cnn3c2)cc1
9 | 94.4 | CNc1cc2c(Nc3cccc(Br)c3)ncnc2cn1
10 | 91.2 | O=C1NC(=O)C(c2cn(CCCO)c3ncccc23)=C1c1cnccn1
11 | 88.5 | COc1cc2ncc(-c3ccccc3)nc2cc1OC
12 | 103 | COc1cc2ncnc(Nc3ccc(Oc4ccccc4)cc3)c2cc1OC
13 | 99.1 | CC(C)[C@H](CO)Nc1nc(Nc2cccc(Cl)c2)c2ncn(C(C)C)c2n1
14 | 111 | Cc1ccc(NC(=O)c2ccc(CN3CCN(C)CC3)cc2)cc1Nc1nc(-c2cccnc2)cs1
15 | 123 | C[C@@H]1CCN(C(=O)CC#N)C[C@@H]1N(C)c1ncnc2[nH]ccc12
16 | 97.4 | Nc1nccc(-c2c(-c3ccc(F)cc3)ncn2C2CCNCC2)n1
17 | 103 | Cc1cc2ncc(-c3ccccc3)nc2cc1C
18 | 118 | CC(C)c1nn(-c2c(Cl)cccc2Cl)c2nc(Cc3ccc(OCCO)cc3)nc(O)c12
19 | 103 | COc1ccc(S(=O)(=O)N(CCO)c2ccccc2CN(C)C/C=C/c2ccc(Cl)cc2)cc1
20 | 88.4 | CCCCc1c(-c2ccc(OC)cc2)[nH]c2nccnc12
21 | 95.2 | CNC(=O)c1cc(Oc2ccc(NC(=O)Nc3ccc(Cl)c(C(F)(F)F)c3)cc2)ccn1
22 | 94.8 | Cn1nc2c3c(cccc31)C(=O)c1ccccc1-2
23 | 98.7 | COc1ccc(C(=O)Nc2sc3c(c2C(N)=O)CCCC3)cc1OC
24 | 81.8 | CC(=O)O/N=C1\C(=C2\C(=O)Nc3cc(Br)ccc32)Nc2ccccc21
25 | 101 | COc1cc2nccc(Oc3ccc(NC(=S)NC(=O)c4ccccc4C)cc3)c2cc1OC

Row | residual activity [%] | Compound
26 | 96.2 | CCCNC(=O)Nc1ccc(Oc2ncnc3cc(OC)c(OC)cc23)cc1Cl
27 | 103 | c1ccc(-c2n[nH]cc2-c2ccnc3ccccc23)nc1
28 | 105 | CN(C)S(=O)(=O)c1ccc2c(c1)/C(=C/c1cc3c([nH]1)CCCC3)C(=O)N2
29 | 96 | O=C(Nc1ccc(Cl)cc1)c1ccccc1NCc1ccncc1
30 | 99.6 | Cc1cccc(-c2nc(C(C)(C)C)[nH]c2-c2ccc3c(c2)OCO3)n1
31 | 90.6 | O=c1cc(-c2cccc3c2Sc2ccccc2S3)oc(N2CCOCC2)c1
32 | 97.2 | CC(=O)c1ccc(N2CCOCC2)cc1O
33 | 103 | COc1cc2ncnc(Nc3ccc(OCc4ccccc4)cc3)c2cc1OC
34 | 69 | O=C1NC(=O)c2c1c1c3ccccc3[nH]c1n1cncc21
35 | 92 | CCOC(=O)c1c(C)[nH]c(/C=C2\C(=O)Nc3ccccc32)c1C
36 | 104 | Nc1ccc2ncnc(NCCc3ccc(Oc4ccccc4)cc3)c2c1
37 | 126 | COc1cc(Nc2c(C#N)cnc3cc(OCCCN4CCN(C)CC4)c(OC)cc23)c(Cl)cc1Cl
38 | 115 | CC(C)n1cnc2c(Nc3cccc(Cl)c3)nc(NCCO)nc21
39 | 107 | O=C1Cc2c([nH]c3ccc(Br)cc23)-c2ccccc2N1
40 | 51 | O=C1Nc2ccccc2/C1=C1/Nc2ccccc2/C1=N\OCCC(O)CO (stereo not given)
41 | 94.8 | O=C(Nc1cccc(Nc2cc(Nc3cccc(C(F)(F)F)c3)ncn2)c1)C1CC1
42 | 62.8 | CCN(CC)CCNC(=O)c1c(C)[nH]c(/C=C2\C(=O)Nc3ccc(F)cc32)c1C
43 | 96.1 | N#CC(C#N)=C(N)/C(C#N)=C/c1ccc(O)cc1
44 | 102 | O=C1NC(=O)/C(=C/c2ccc3c(c2)OC(F)(F)O3)S1
45 | 93.8 | c1ccc2c(-c3ccncc3)c[nH]c2c1
46 | 103 | O=c1cc(N2CCNCC2)oc2c(-c3ccccc3)cccc12
47 | 93.1 | CC(C)[C@H](CO)Nc1nc(Nc2cc(N)cc(Cl)c2)c2ncn(C(C)C)c2n1
48 | 103 | Nc1ncnc2c1c(-c1ccc(Oc3ccccc3)cc1)cn2C1CCCC1
49 | 96 | O=C1Cc2c([nH]c3ccc([N+](=O)[O-])cc23)-c2ccccc2N1
50 | 69.1 | O=C1Nc2ccccc2/C1=C1\Nc2ccccc2\C1=N/O

Row | residual activity [%] | Compound
51 | 95.9 | Cc1nc2cc3nc(-c4cccs4)cnc3cc2n1C
52 | 94 | Cn1sc(=O)n(Cc2ccccc2)c1=O
53 | 67.2 | O=C1c2ccccc2-c2nc3nnnn3nc21
54 | 121 | Clc1ccc(Nc2nnc(Cc3ccncc3)c3ccccc23)cc1
55 | 95.6 | CC#CC(=O)Nc1cc2c(Nc3ccc(F)c(Cl)c3)ncnc2cn1
56 | 101 | Oc1ccc(-c2nc(-c3ccc(F)cc3)c(-c3ccncc3)[nH]2)cc1
57 | 105 | COc1ccc(CNC(=O)Nc2ncc([N+](=O)[O-])s2)cc1
58 | 114 | Nc1nnc2[nH]c3ccccc3nc1-2
59 | 74.2 | O=C(c1cc2cc(O)ccc2[nH]1)c1cc2cc(O)ccc2[nH]1
60 | 48.7 | Nc1nc(Nc2ccc(S(N)(=O)=O)cc2)nn1C(=S)Nc1c(F)cccc1F
61 | 99 | Ic1cccc(CSc2nnc(-c3ccncc3)o2)c1
62 | 114 | Cc1ccc(NC2=CC(=O)c3sc(C)nc3C2=O)cc1
63 | 97.3 | CS(=O)c1ccc(-c2nc(-c3ccc(F)cc3)c(-c3ccncc3)[nH]2)cc1 (stereo not given)
64 | 100 | Fc1ccc(-c2nc3n(c2-c2ccncc2)CCS3)cc1
65 | 91.3 | O=C1Nc2ccc(Cl)cc2/C1=C/c1cc(Cl)c(O)c(Cl)c1
66 | 99.8 | COc1cc2ncnc(N3CCN(C(=O)Nc4ccc(Oc5ccccc5)cc4)CC3)c2cc1OC
67 | 105 | O=C1NC(=O)C(c2c[nH]c3ccccc23)=C1c1c[nH]c2ccccc12
68 | 103 | O=C(Nc1cccc(Nc2nccc(Nc3cccc(C(F)(F)F)c3)n2)c1)C1CC1
69 | 95 | O=C1NC(=O)/C(=C\c2ccc3nccnc3c2)S1
70 | 91.3 | COc1cc2ncnc(Nc3cccc(Cl)c3)c2cc1OC
71 | 93.4 | O=C1Nc2ccc(Br)cc2/C1=C\c1cc2c([nH]1)CCCC2
72 | 120 | CC[C@@H](CO)Nc1nc(NCc2ccccc2)c2ncn(C(C)C)c2n1
73 | 50.9 | CC(C)(C)c1nc2c3ccc(F)cc3c3c(=O)[nH]ccc3c2[nH]1
74 | 100 | Oc1cccc(-c2nc(N3CCOCC3)c3oc4ncccc4c3n2)c1
75 | 97.3 | CSc1nc(-c2ccc(F)cc2)c(-c2ccnc(NC(C)c3ccccc3)c2)[nH]1 (stereo not given)

Row | residual activity [%] | Compound
76 | 98.7 | Cc1ccc(S(=O)(=O)/C=C/C#N)cc1
77 | 93.2 | N#Cc1c[nH]c2c[nH]/c(=N\Cc3cccnc3)cc2/c1=N\c1ccc(F)c(Cl)c1
78 | 49.6 | CCN(CC)CCNC(=O)c1c(C)[nH]c(/C=C2\C(=O)Nc3ccc(Cl)cc32)c1C
79 | 103 | N#C/C(=C\c1ccc(O)c(O)c1)C(=O)NCc1ccccc1
80 | 125 | Cc1ccc(Nc2nccc(N(C)c3ccc4c(C)n(C)nc4c3)n2)cc1S(N)(=O)=O
81 | 101 | c1ccc(-c2n[nH]c3c2oc2ccccc23)cc1
82 | 121 | NC(=O)c1ccc(N(C(N)=O)c2c(F)cccc2F)nc1-c1ccc(F)cc1F
83 | 105 | CN([C@@H](Cc1ccc(OS(=O)(=O)c2cccc3cnccc23)cc1)C(=O)N1CCN(c2ccccc2)CC1)S(=O)(=O)c1cccc2cnccc12
84 | 60.9 | O=C1Nc2cc(Br)ccc2/C1=C1/Nc2ccccc2/C1=N\O
85 | 125 | COc1ccc(OC)c2c(=S)c3ccccc3[nH]c12
86 | 99.3 | Cc1nc(-c2ccccc2)c(-c2ccncc2)o1
87 | 101 | CO[C@H]1CC2CC[C@@H](C)[C@@](O)(O2)C(=O)C(=O)N2CCCC[C@H]2C(=O)OC([C@H](C)C[C@@H]2CC[C@@H](O)[C@H](OC)C2)CC(=O)[C@H](C)/C=C(\C)[C@@H](O)[C@@H](OC)C(=O)[C@H](C)C[C@H](C)/C=C/C=C/C=C/1C (stereo not given in full)
88 | 121 | CCN1/C(=C/C(C)=O)Sc2ccc(OC)cc21
89 | 81.9 | CO[C@@H]1[C@H](N(C)C(=O)c2ccccc2)C[C@H]2O[C@]1(C)n1c3ccccc3c3c4c(c5c6ccccc6n2c5c31)C(=O)NC4
90 | 99.5 | COc1ccc2c(c1)c(C1=C(c3c[nH]c4ccccc34)C(=O)NC1=O)cn2CCCN(C)C
91 | 48.6 | CN(C)CCCn1cc(C2=C(c3c[nH]c4ccccc34)C(=O)NC2=O)c2ccccc21
92 | 76.7 | O=C(O)/C=C/c1cc(Br)c(Br)c(Br)c1Br
93 | 98 | O=c1cc(N2CCOCC2)oc2c1ccc1ccccc12
94 | 128 | CS(=O)(=O)CCNCc1ccc(-c2ccc3ncnc(Nc4ccc(OCc5cccc(F)c5)c(Cl)c4)c3c2)o1
95 | 79.1 | Cn1c2ccccc2c2c3c(c4c5ccccc5n(CCC#N)c4c21)CNC3=O
96 | 96.6 | O=S(=O)(c1cccc2cnccc12)N1CCCNCC1
97 | 103 | O=C(CCCc1ccc(-c2ccccc2F)cc1)Nc1ccc(O)cc1
98 | 84.7 | CCN(CC)C(=O)c1ccc(Nc2nc(OCC3CCCCC3)c3nc[nH]c3n2)cc1
99 | 131 | COc1cc2ncnc(Nc3ccc(F)c(Cl)c3)c2cc1OCCCN1CCOCC1
100 | 101 | Nc1cccc(-c2cc3c(Oc4cccc(O)c4)ncnc3[nH]2)c1

Row | Compound | residual activity [%]
101 | COc1ccc2c(c1)/C(=C/c1cnc[nH]1)C(O)=N2 | 71.5
102 | COc1ccc2c(c[n+](C)c3c4cc5c(cc4ccc23)OCO5)c1OC | 118
103 | CCn1cnc2c(Nc3cccc(Cl)c3)nc(N[C@@H]3CCCC[C@@H]3N)nc21 | 120
104 | CC(C)(C)c1cc(C=C(C#N)C#N)cc(Br)c1O | 95.3
105 | O=C1NC(=O)c2c1c1c3ccccc3n3c1c1c2c2ccccc2n1C1CCC3O1 | 23.8
